Measured values taken from publication PMC4433810 (European journal of medicinal chemistry, 2015).

How the values were obtained:
[1] = test system: FR (−) lung cancer cell line A549; test: Cell viability; assay type: cell-based
[2] = test system: tubulin acetylation (marker of HDAC6 activity) in KB cells; test: Western blot analysis of tubulin acetylation in KB cells; assay type: cell-based; conditions: 4 h, at IC50 doses and above
[3] = test system: histone H4 acetylation (intracellular marker of HDAC1 inhibition) in KB cells; test: Western blot analysis of histone H4 acetylation in KB cells; assay type: cell-based; conditions: 24 h
KB cells = test: Folic acid; assay type: cell-based; conditions: 25 μM of 11e, absence vs presence of folic acid (250 μM); p < 0.01
HDAC1 = HDAC1 (Homo sapiens, UniProt Q13547); test: SAMDI mass spectrometry HDAC activity assay, HDAC1; assay type: biochemical
HDAC6 = molecular target: T1, HDAC6 (Homo sapiens, UniProt Q9UBN7); test: SAMDI mass spectrometry HDAC activity assay, HDAC6; assay type: biochemical
T1 sequence (Q9UBN7 1-1215): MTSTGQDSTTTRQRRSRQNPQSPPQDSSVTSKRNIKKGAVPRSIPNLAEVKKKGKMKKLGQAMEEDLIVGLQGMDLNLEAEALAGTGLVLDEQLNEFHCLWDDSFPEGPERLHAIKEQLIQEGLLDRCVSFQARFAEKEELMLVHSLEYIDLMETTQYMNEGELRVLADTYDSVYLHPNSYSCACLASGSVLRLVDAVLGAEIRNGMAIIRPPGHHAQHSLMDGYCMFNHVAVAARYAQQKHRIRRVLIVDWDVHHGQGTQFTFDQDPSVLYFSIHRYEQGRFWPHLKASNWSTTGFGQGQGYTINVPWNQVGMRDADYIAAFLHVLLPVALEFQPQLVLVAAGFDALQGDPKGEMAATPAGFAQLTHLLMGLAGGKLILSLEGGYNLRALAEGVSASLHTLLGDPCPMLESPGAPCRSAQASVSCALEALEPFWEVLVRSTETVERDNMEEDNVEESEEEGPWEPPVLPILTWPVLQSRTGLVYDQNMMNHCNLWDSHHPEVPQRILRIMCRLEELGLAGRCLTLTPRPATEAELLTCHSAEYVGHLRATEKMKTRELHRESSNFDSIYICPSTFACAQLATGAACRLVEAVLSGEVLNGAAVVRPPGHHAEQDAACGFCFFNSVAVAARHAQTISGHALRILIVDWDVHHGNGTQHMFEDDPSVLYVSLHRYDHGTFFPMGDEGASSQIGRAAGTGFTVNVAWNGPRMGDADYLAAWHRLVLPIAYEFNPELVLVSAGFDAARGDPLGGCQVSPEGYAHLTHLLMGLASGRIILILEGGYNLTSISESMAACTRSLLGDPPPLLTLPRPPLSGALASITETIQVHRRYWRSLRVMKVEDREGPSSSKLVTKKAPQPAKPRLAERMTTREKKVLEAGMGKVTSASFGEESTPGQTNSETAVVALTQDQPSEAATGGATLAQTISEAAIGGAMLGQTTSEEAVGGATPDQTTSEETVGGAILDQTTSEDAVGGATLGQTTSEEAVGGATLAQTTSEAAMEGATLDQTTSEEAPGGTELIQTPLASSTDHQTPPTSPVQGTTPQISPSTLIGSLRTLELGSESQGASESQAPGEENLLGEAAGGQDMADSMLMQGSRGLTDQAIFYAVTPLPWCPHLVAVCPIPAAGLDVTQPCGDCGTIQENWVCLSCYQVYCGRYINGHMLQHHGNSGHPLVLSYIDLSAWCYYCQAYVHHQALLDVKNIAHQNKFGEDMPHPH

HDAC8 = molecular target: T2, HDAC8 (Homo sapiens, UniProt Q9BY41); test: SAMDI mass spectrometry HDAC activity assay, HDAC8; assay type: biochemical
T2 sequence (Q9BY41 1-377): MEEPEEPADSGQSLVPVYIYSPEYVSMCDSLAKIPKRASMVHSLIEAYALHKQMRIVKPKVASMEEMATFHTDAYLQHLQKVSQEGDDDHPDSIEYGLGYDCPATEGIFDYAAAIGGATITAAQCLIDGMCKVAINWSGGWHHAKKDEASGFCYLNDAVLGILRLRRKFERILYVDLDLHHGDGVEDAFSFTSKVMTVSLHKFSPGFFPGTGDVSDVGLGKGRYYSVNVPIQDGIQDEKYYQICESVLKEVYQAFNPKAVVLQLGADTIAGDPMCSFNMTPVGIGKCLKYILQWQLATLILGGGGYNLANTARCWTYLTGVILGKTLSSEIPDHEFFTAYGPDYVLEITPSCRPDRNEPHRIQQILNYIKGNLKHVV

[4] = test system: KB (oral carcinoma) cells, FR (+); test: Cell viability; assay type: cell-based; conditions: up to 100 μM
[5] = test system: HeLa (cervical carcinoma) cells, FR (+); test: Cell viability; assay type: cell-based; conditions: up to 100 μM
[6] = SAHA 2 and 20μM, 11d 50 and 100μM, 11e 30 and 100μM

Sequence of HDAC1 (Q13547 whole entry): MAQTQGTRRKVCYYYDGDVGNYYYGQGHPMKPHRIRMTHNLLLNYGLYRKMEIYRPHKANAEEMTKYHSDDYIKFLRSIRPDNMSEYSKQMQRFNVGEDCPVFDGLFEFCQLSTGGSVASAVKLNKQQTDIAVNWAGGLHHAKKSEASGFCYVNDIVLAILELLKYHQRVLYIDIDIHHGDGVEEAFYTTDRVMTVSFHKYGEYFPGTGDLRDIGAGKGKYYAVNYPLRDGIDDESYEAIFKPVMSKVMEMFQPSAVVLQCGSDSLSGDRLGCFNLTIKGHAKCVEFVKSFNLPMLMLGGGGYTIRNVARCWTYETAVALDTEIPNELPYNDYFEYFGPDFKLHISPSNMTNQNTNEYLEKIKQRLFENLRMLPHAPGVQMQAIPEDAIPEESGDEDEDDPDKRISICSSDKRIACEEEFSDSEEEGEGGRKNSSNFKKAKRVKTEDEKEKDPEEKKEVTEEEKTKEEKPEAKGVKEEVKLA

| Compound | Activity against A549 cells, in words [1] | Acetylated tubulin levels [2] | Histone H4 acetylation [3, 6] | other results |
| --- | --- | --- | --- | --- |
| Nc1nc2ncc(CNc3ccc(C(=O)NCCCCCCC(=O)NO)cc3)nc2c(=O)[nH]1 [11d, 4-(((2-Amino-4-oxo-3,4-dihydropteridin-6-yl)methyl)amino)-N-(7-(hydroxyamino)-7-oxoheptyl)benzamide] | inactive | increase in acetylated tubulin levels | dose dependent increases in histone H4 acetylation | – |
| Nc1nc2ncc(CNc3ccc(C(=O)NCCCCCCCC(=O)NO)cc3)nc2c(=O)[nH]1 [11e, 4-(((2-Amino-4-oxo-3,4-dihydropteridin-6-yl)methyl)amino)-N-(8-(hydroxyamino)-8-oxooctyl)benzamide] | inactive | increase in acetylated tubulin levels | dose dependent increases in histone H4 acetylation | Effect of folic acid on cytotoxicity (viability of KB cells) (KB cells): reduced the cytotoxicity |
| O=C(CCCCCCC(=O)Nc1ccccc1)NO [SAHA, reference compound] | – | increase in acetylated tubulin levels | dose dependent increases in histone H4 acetylation | – |
| CN1CCc2c(c3ccccc3n2Cc2ccc(C(=O)NO)cc2)C1 [Tubastatin A, reference compound] | – | – | – | Histone H4 acetylation ([3]; 14 μM): significant increase in H4 acetylation |
| Nc1nc2ncc(CNc3ccc(C(=O)N[C@@H](CCC(=O)NO)C(=O)O)cc3)nc2c(=O)[nH]1 [compound 6, 2-(4-(((2-Amino-4-oxo-3,4-dihydropteridin-6-yl)methyl)amino)benzamido)-5-(hydroxyamino)-5-oxopentanoic acid] | – | – | – | HDAC1 inhibition, in words (HDAC1): inactive; HDAC6 inhibition, in words (HDAC6): inactive; HDAC8 inhibition, in words (HDAC8): inactive |
| Nc1nc2ncc(CNc3ccc(C(=O)NO)cc3)nc2c(=O)[nH]1 [compound 7, 4-(((2-Amino-4-oxo-3,4-dihydropteridin-6-yl)methyl)amino)-N-hydroxybenzamide] | – | – | – | Cytotoxicity to KB cells, in words [4]: not cytotoxic; Cytotoxicity to HeLa cells, in words [5]: not cytotoxic; Histone H4 acetylation ([3]; 100 μM, relative to the control): little effect on H4 acetylation |
